According to PubChem BioAssay AID2305 (GlaxoSmithKline (GSK), 2010):
“And” between values parts separate entries of the source, which are not always exact repeats. Equal entries are not always repeated.

Tested on: P. falciparum 3D7 growth, pLDH absorbance
Experiment: P. falciparum 3D7 growth inhibition, dose response, strain 3D7 (AID 2305)

Structure (SMILES) | IC50
CCc1ccc(NC(=O)C=NN=C(N)N)cc1 | 900 nM
CN1C(C)(C)CC(NC(=O)c2ccc(-c3nc4ccc(Cl)cc4[nH]3)cc2)CC1(C)C | 990 nM
CC(C)(C)c1nn(-c2ccccc2)c2[nH]c(=O)c(CNC3CCCCC3)cc12 | 1250 nM
CCCCCCCN1CC[C@H](NC(=O)Nc2ccnc3ccc(OC)cc23)[C@H](CO)C1 | 180 nM
O=C(Nc1cccc(F)c1)N1CCC(NS(=O)(=O)c2ccc(Br)cc2)CC1 | 980 nM
C/C=C1\CN2CC[C@H]1C[C@H]2[C@H](O)c1ccnc2ccc(OC)cc12 | 220 nM and 320 nM
Cc1cc(CN2CCC(N3CC(c4ccccc4)(c4ccccc4)OCC3=O)C2)ccc1O (stereo unspecified) | 1080 nM
Cc1cc(NCCc2ccccc2)nc(/N=C(\N)Nc2cccc(F)c2)n1 | 900 nM
CCOC(=O)c1ccc(NC(=O)Nc2ccc(-c3cccc(-c4nc5ccc(F)cc5[nH]4)c3)cc2)cc1 | 120 nM
Cc1ccc(C)c(N2CCN(Cc3ccccc3O)CC2)c1 | 940 nM
NC(N)=NN=Cc1ccc2c(ccc3ccccc32)c1 | 630 nM
Cc1cc(=O)c2cc(-c3ccc(OC(F)(F)F)cc3)ccc2[nH]1 | 480 nM
CN1CCCC1CCNC(=O)[C@H](CC1CCCCC1)NC(=O)c1ccc(O)c(-c2ccc(Cl)c(Cl)c2)c1 (stereo partly specified) | 740 nM
CC(C)(C)Oc1ccc(C[C@@H]2NC3(C(=O)N(Cc4ccc(Cl)c(Cl)c4)c4ccccc43)C3C(=O)N(c4ccc(Br)cc4)C(=O)C32)cc1 (stereo partly specified) | 1040 nM
Cc1cc(N[C@@H](Cc2ccccc2)C(=O)NC2CCCC2)nc(NCCc2ccc(F)cc2)n1 | 800 nM
COC(=O)[C@@H](NC(=O)[C@H](Cc1ccc(OC)c(OC)c1)Nc1ccc(C#N)c2ccccc12)c1ccc(O)cc1 | 750 nM
OC(CNCCc1ccccc1)Cn1c2ccc(Cl)cc2c2cc(Cl)ccc21 (stereo unspecified) | 730 nM
Cc1[nH]c2ccccc2c1C1=CCN(C[C@H]2C[C@@H]2C(=O)c2ccccc2)CC1 | 350 nM
CCOc1ccc2c(NN=Cc3ccccc3F)cc(C)nc2c1 | 680 nM
N#Cc1ccc(N[C@@H](CC2CCCCC2)C(=O)NCc2cc(Cl)cc(Cl)c2)c2ccccc12 | 1100 nM
CC[C@H]1CN2CC[C@@H]1C[C@H]2[C@H](O)c1cc(N2CCC(C(N)=O)CC2)nc2ccc(OC)cc12 | 770 nM
CN(C)c1ccc(C=C2SC(=O)NC2=Nc2ccccc2)cc1 | 30 nM
CCOC(=O)c1ccc(OCCOc2ccccc2)cc1 | 370 nM
Clc1ccc2c(N3CCCNCC3)ccnc2c1 | 480 nM

Structure (SMILES) | IC50
CN1CCN(c2ccc(Nc3ncc(C#N)c(Nc4ccccc4C(N)=O)n3)cc2)CC1 | 40 nM
CCCC1(NC[C@@H](O)[C@H](Cc2ccccc2)NC(=O)c2cc(NCC)cc(N3CCCCS3(=O)=O)c2)CCC1 | 720 nM
Cc1cc(N2CCN(C3CCCCC3)CC2)nc2cccc(O)c12 | 700 nM
O=c1cc(NCCCNC2CCCc3c2ccc2ccccc32)[nH]c2ccccc12 (stereo unspecified) | 820 nM
O=C(Nc1ccccc1)Nc1ccc(-c2cccc(-c3nc4ccc(C(F)(F)F)cc4[nH]3)c2)cc1 | 730 nM
O=c1cc(NCCCNCc2cc(C(F)(F)F)ccc2F)[nH]c2ccccc12 | 830 nM
O=C(NCc1ccccc1)c1ccc(C(=O)NCC2CNCCO2)cc1 (stereo unspecified) | 1140 nM
FC(F)(F)c1ccc2nc(-c3ccc(-c4cccc(CNCCN5CCNCC5)c4)cc3)[nH]c2c1 | 1030 nM
COc1ccc(-n2nc(C(=O)NCc3ccccc3OC)c3ccccc3c2=O)cc1 | 220 nM
CC(=O)N(Cc1ccccc1-c1cccc(CNCCc2ccccc2)c1)C1CCN(Cc2ccccc2)CC1 | 1100 nM
COc1cccc(-c2cnc(N)c(-c3nc4ccc(F)cc4[nH]3)c2)c1 | 850 nM
CCOC(=O)C1=C(C)N=c2sc(=Cc3cc(Cl)ccc3O)c(=O)n2C1c1cc(OC)c(OC)cc1Br (stereo unspecified) | 990 nM
C=CCc1cccc(CN2CCC(c3cc(=O)[nH]c(-c4ccccn4)n3)CC2)c1O | 1100 nM
Cc1ccc2c(O)c([N+](=O)[O-])c(=O)[nH]c2c1 | 420 nM
CC(=O)Oc1c(Cl)c(C)nc(C)c1-c1ccc(Oc2ccc(OC(F)(F)F)cc2)cc1 | 100 nM
O=C(Nc1ccc(Cl)cc1)c1ccc(CN2CCCN(Cc3ccccc3)CC2)cc1 | 750 nM
C#CCCC(=O)Nc1cccc(-c2cccc(-c3nc4ccc(C(F)(F)F)cc4[nH]3)c2)c1 | 810 nM
O=C(Nc1cccc(Cl)c1Cl)NC1CCN(Cc2cccc(O)c2)CC1 | 800 nM
CC(Cc1ccc(SC(C)C)cc1)NCC(O)c1cccc(Cl)c1 (stereo unspecified) | 830 nM
CN(C)Cc1ccc(CN2CCN(CCOc3ccc(-c4ccc(Cl)cc4)cc3)CC2)o1 | 1020 nM
O=C(/C=C/c1ccc2ccccc2c1)NCCCCCN1CCC(c2c[nH]c3ccccc23)CC1 | 1230 nM
CC[C@H]1CN2CC[C@H]1C[C@H]2[C@H](O)c1cc(-c2ccc(F)cc2)nc2ccc(OC)cc12 | 50 nM
CC(C)C[C@H](NC(=O)c1ccc(OCCN2CCOCC2)cc1)C(=O)NC(/C=N/N1CCCC1=O)C(C)C (stereo partly specified) | 250 nM
COc1ccc(CCNC(=O)c2ccc(-n3cc(NC(=O)c4cccnc4)cn3)cc2)cc1OC | 1070 nM

Structure (SMILES) | IC50
NC(=O)COc1c(C2CCN(CCN3CCC(CNC(=O)c4ccc(-c5ccc(C(F)(F)F)cc5)cc4)CC3)CC2)ccc2c1CCCC2 | 970 nM
Nc1c2c(nc3ccc(NC(=O)Cc4ccccc4)cc13)CCCC2 | 760 nM
CCN(CC)CCCC(C)Nc1c2ccccc2nc2c1ccc1ccccc12 (stereo unspecified) | 1090 nM
COC(=O)C(c1ccc(NC(=O)[C@H](CC(C)C)NC(=O)OC(C)(C)C)cc1)c1ccc(NC(=O)[C@H](CC(C)C)NC(=O)OC(C)(C)C)cc1 | 350 nM
CCOc1cc(N)c2nc3ccc([N+](=O)[O-])cc3cc2c1 | 150 nM
Fc1ccc(-c2csc3ncnc(Cl)c23)cc1 | 330 nM
O=C(Nc1ccc2ccccc2c1)c1ccc(CN2CCC(Cc3ccccc3)CC2)cc1 | 880 nM
CCN(CC)CC(O)Cc1c2ccc([N+](=O)[O-])cc2nc2cc(OC)c(OC)cc12 (stereo unspecified) | 740 nM
CCOc1ccc2nc(C)cc(NN=Cc3ccc(Cl)cc3)c2c1 | 760 nM
COc1cccc2c(NN=Cc3cccc(F)c3)ccnc12 | 930 nM
COc1ccc(-n2nc(C(=O)NCCC3=CCCCC3)c3ccccc3c2=O)cc1 | 680 nM
CCCCCCCc1c(C)[nH]c2cc(OC)ccc2c1=O | 60 nM
COc1ccc(CNc2ncc(-c3ccsc3)c(-c3nccs3)n2)cc1OC | 90 nM
O=C1CCCN1CCCNCc1cccc(-c2ccc(-c3nc4ccc(C(F)(F)F)cc4[nH]3)s2)c1 | 450 nM
Cc1cc(CN2CC[C@H](NC(=O)c3ccc(Cl)c(Cl)c3)C2)ccc1OC1CCN(Cc2ccccc2)CC1 | 910 nM
CC(Cc1ccc(-c2nc3ccccc3[nH]2)cc1)NCC(O)c1cccc(C(F)(F)F)c1 (stereo unspecified) | 350 nM
CS(=O)(=O)NCCCNCc1cccc(-c2cccc(-c3nc4ccc(C(F)(F)F)cc4[nH]3)c2)c1 | 470 nM
Fc1ccc(C(OCC2CCCN(Cc3cccc4cccnc34)C2)c2ccc(F)cc2)cc1 (stereo unspecified) | 700 nM
CCN(CCCNc1nc(=S)[nH]c2cc(OC)c(OC)cc12)c1ccccc1 | 720 nM
CC(=O)Nc1ncc(C(=O)Nc2cccc(-c3ccc(-c4nc5c(C)cccc5[nH]4)cc3)c2)s1 | 640 nM
CCCCCCN1CCCN(Cc2ccc(C(=O)Nc3ccc(CCC)cc3)cc2)CC1 | 660 nM
Cc1ccc(C(C(=O)Nc2ccc(N3CCNCC3)c(Cl)c2)c2ccccc2)cc1 (stereo unspecified) | 840 nM
CC[C@H]1CN2CC[C@@H]1C[C@H]2[C@H](O)c1cc(N2CCC(O)(c3ccc(Cl)cc3)CC2)nc2ccc(OC)cc12 | 70 nM
